# Patent publication US5734057A, “HIV protease inhibitors and intermediates” (Eli Lilly and Company, priority 1996, dated 1998)
# Where two headings read alike, the source gives them in different places.
# Columns and labels:
# HIV = experiment: Antiviral cell culture assay (XTT viability of HIV-infected cells); format: cell-based
# From the text: As noted above, the compounds of formula (I) are useful as HIV protease inhibitors and for preparing HIV protease inhibitors. These compounds may be assayed using two assays: (1) an enzyme inhibition assay, and (2) an antiviral cell culture assay.
# In addition, the compounds described in the present application may be tested using an antiviral cell culture assay as described in Weislow, O. S., J. of National Cancer Institute, 81(8), pages 577-586 (Apr. 19, 1989) herein incorporated by reference.
# This assay compares the viability of HIV-infected cells in a cell culture medium relative to the viability of such cells in the presence of a test compound. The concentration of test compound necessary to inhibit 90% of the virus is then measured using the viability of the cells as an indicator of viral inhibition. This assay is carried out using cell lines that are sensitive to the lyric effects of HIV infection.
# Specifically, this assay utilizes the metabolic reduction of a tetrazolium reagent, 2,3-bis[2-methoxy-4-nitro-5-sulfophenyl]-5-[(phenylamino carbonyl]-2H-tetrazolium hydroxide (XTT). In the presence of a viable cell, the tetrazolium reagent, XTT, ms reduced to provide XTT formazan which may be quantified using colorimetric determination (at 450 nm). The intensity of the chromogenic signal is directly proportional to the concentration of the XTT formazan, thus providing a measure of the quantity of viable cells.
# The compounds prepared in Examples 9 and 10, above, were tested using this assay.
# HIV-1 protease = biological target: T1, HIV-1 protease (Human immunodeficiency virus type 1 group M subtype B, UniProt P04585); experiment: biochemical; details: for IC50: read-out: Inhibitory Activity, Fluorescence Assay IC50 (converted)
# T1 construct: HIV-1 Protease
# Description: These compounds may be assayed using two assays: (1) an enzyme inhibition assay, and (2) an antiviral cell culture assay.
# This assay is described in detail in published European Patent Application (EPA) 0 526 009, herein incorporated by reference. Using this assay, a number of the compounds, prepared above, were assayed for HIV protease inhibitory activity.
# The assay is unable to test compounds at less than a concentration of 0.16 ng/mL.
# [1] = Human immunodeficiency virus 1, concentration that inhibits 90%
# [2] = concentration that inhibits 50% of the enzyme, assay limit 0.16 ng/mL
Structure (SMILES),IC90 (HIV; [1]) [nM],IC50 (HIV-1 protease; [2]) [nM],IC90 (HIV; concentration that inhibits 90%) [nM],"inhibition at 0.00016 µg/mL (HIV-1 protease; at 0.16 ng/mL, read-out: % inhibition at stated concentration (IC74 (0.16))) [%]",IC50 (HIV-1 protease) [nM]
"Cc1c(O)cccc1C(=O)N[C@@H](CSc1ccccc1)[C@H](O)CN1C[C@H]2CCS[C@H]2C[C@H]1C(=O)NC(C)(C)C [Example 9, N-t-Butyl-octahydro-5[2R-hydroxy-3R-N(2'-methyl-3'-hydroxyphenylcarbonyl)amino-4-phenylthio-butyl]-(3aR,7aS)-thieno[3,2-c] pyridine-(6S)-carboxamide]",17,0.315,–,–,–
"Cc1c(O)cccc1C(=O)N[C@@H](CSc1ccccc1)[C@H](O)CN1C[C@H]2CCS[C@H]2C[C@H]1C(=O)NC(C)(C)C [Example 10, N-t-Butyl-octahydro-5[2R-hydroxy-3R-N(2'-methyl-3'-hydroxyphenylcarbonyl)amino-4-phenylthio-butyl]-(3aR,7aS)-thieno[3,2-c] pyridine-(6S)-carboxamide methanesulfonate]",–,–,10,74,–
"CC(C)(C)NC(=O)[C@@H]1C[C@@H]2SCC[C@@H]2CN1C[C@@H](O)[C@H](Cc1ccccc1)NC(=O)OCc1ccccc1 [Example 5, N-t-Butyl-octahydro-5[2R-hydroxy-4-phenyl-3S-N(benzyloxycarbonyl)amino-butyl]-(3aR,7aS)-thieno[3,2-c]pyridine-(6S)-carboxamide]",2000,6.3,–,–,–
"CC(C)(C)NC(=O)[C@@H]1C[C@@H]2SCC[C@@H]2CN1C[C@@H](O)[C@H](CSc1ccccc1)NC(=O)OCc1ccccc1 [Example 7, N-t-Butyl-octahydro-5[2R-hydroxy-4-thiophenyl-3R-N(benzyloxycarbonyl)amino-butyl]-(3aR,7aS)-thieno[3,2-c] pyridine-(6S)-carboxamide]",–,–,–,–,3.32
